The record followed here is US8017775B2, “1-2-dihydroquinoline derivative having glucocorticoid receptor binding activity” (Santen Pharmaceutical Co., Ltd., priority 2005, dated 2011).

SMILES strings stand for the structures.

The target of this assay is T1, Recombinant human GR (Homo sapiens, UniProt P04150).
T1 construct: purchased Invitrogen P2816
T1 sequence (P04150 1-777): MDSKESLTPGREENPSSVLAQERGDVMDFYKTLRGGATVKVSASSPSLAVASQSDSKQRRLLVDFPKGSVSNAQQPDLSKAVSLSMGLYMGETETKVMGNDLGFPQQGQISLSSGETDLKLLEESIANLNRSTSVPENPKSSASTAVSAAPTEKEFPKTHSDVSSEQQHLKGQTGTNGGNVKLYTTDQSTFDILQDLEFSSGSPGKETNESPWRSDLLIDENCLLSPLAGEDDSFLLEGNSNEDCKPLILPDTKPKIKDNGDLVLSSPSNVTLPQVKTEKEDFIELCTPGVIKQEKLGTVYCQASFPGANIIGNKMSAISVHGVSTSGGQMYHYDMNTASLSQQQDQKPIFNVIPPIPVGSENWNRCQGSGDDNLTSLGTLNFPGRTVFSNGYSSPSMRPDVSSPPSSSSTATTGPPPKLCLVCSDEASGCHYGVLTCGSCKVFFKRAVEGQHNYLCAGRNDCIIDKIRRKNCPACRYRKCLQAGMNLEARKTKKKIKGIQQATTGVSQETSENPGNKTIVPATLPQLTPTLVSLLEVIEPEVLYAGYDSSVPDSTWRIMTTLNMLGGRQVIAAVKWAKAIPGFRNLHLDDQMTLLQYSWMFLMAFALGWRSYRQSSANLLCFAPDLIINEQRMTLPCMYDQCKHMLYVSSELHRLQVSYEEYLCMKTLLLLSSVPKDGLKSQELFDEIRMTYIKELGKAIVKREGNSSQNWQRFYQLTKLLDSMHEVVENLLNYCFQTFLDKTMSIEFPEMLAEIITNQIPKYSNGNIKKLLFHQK
Kind of assay: GR competitor assay by fluorescence polarization (GR binding ratio). The conditions noted are these: positive control 2 mM dexamethasone, a GR binding ratio of 100% or more is indicated by 100%. As to the method: 1. Evaluation Test for Binding Activity to Glucocorticoid Receptor (hereinafter referred to as “GR”)
In order to evaluate a binding activity to GR, a receptor competitor assay was carried out by a fluorescence polarization method. In the assay, a GR competitor assay kit (manufactured by Invitrogen, cat No. P2816) was used, and a procedure was carried out according to the protocol attached to the kit. Hereinafter, the specific method will be described.
GR screening buffer: A buffer containing 10 mM potassium phosphate (pH 7.4), 20 mM sodium molybdate (Na2MoO4), 0.1 mM ethylene diamine tetraacetic acid (EDTA), 5 mM dithiothreitol (DTT), 0.1 mM stabilizing peptide and 2% dimethylsulfoxide was prepared.
4×GS1 solution: Fluormone™ GS1, which is a fluorescent glucocorticoid ligand, was diluted with GR screening buffer, whereby a 4 nM solution was prepared.
4×GR solution: Recombinant human GR was diluted with GR screening buffer, whereby a 16 nM solution was prepared.
After a test compound was dissolved in dimethylsulfoxide, the resulting solution was diluted with GR screening buffer, whereby a 20 μM test compound solution was prepared.
1) The test compound solution was added in an amount of 25 μL or 10 μL into each well of a 96-well or 384-well plate, and then, 4×GS1 solution and 4×GR solution were added in an amount of 12.5 μL or 5 μL into each well, respectively.
2) The plate was incubated in a dark place at room temperature for 2 to 4 hours.
3) By using a multimode plate reader, Analyst™ HT (manufactured by LJL Biosystems), fluorescence polarization of each well was measured. As the blank, a well containing GR screening buffer in place of the test compound and 4×GS1 solution was used.
4) The same procedure as that in the above 1) to 3) was carried out except that GR screening buffer was used in place of the test compound solution, and the obtained result was taken as the negative control.
5) The same procedure as that in the above 1) to 3) was carried out except that 2 mM dexamethasone was used in place of the test compound solution, and the obtained result was taken as the positive control.
A GR binding ratio (%) was calculated from the following equation.
GR binding ratio (%)=100×[1−(fluorescence polarization of test compound solution−fluorescence polarization of positive control solution)/(fluorescence polarization of negative control solution−fluorescence polarization of positive control solution)]

Regarding `COc1ccc(C(=O)OCc2c(-c3ccc(F)cc3OC)ccc3c2C(C)=CC(C)(C)N3)cc1` [Compound 1-19, 6-(4-Fluoro-2-methoxyphenyl)-5-(4-methoxybenzoyloxymethyl)-2,2,4-trimethyl-1,2-dihydroquinoline], the “GR Binding ratio (%)” value is listed as at least 100%.

For the compound `COc1ccc(C(F)(F)F)cc1-c1ccc2c(c1COc1cc(F)ccc1C)C(C)=CC(C)(C)N2` [Compound 14-15, 5-(5-Fluoro-2-methylphenoxymethyl)-6-(2-methoxy-5-trifluoromethylphenyl)-2,2,4-trimethyl-1,2-dihydroquinoline], the “GR Binding ratio (%)” value came out at 99%.

`COc1ccc(C(F)(F)F)cc1-c1ccc2c(c1CNc1cc(F)ccc1C)C(C)=CC(C)(C)N2` [Compound 6-79, 5-(5-Fluoro-2-methylphenylaminomethyl)-6-(2-methoxy-5-trifluoromethylphenyl)-2,2,4-trimethyl-1,2-dihydroquinoline]: the “GR Binding ratio (%)” value is reported as at least 100%.

For `CCc1ccccc1NCc1c(-c2ccc(F)cc2OC)ccc2c1C(C)=CC(C)(C)N2` [Compound 6-45, 5-(2-Ethylphenylaminomethyl)-6-(4-fluoro-2-methoxyphenyl)-2,2,4-trimethyl-1,2-dihydroquinoline], the “GR Binding ratio (%)” value was 96%.

Turning to `COc1cc(F)ccc1-c1ccc2c(c1COc1ccccc1C)C(C)=CC(C)(C)N2` [Compound 3-22, 6-(4-Fluoro-2-methoxyphenyl)-5-(2-methylphenoxymethyl)-2,2,4-trimethyl-1,2-dihydroquinoline], the “GR Binding ratio (%)” value was 99%.

On to `COc1cc(F)ccc1-c1ccc2c(c1COc1cc(Cl)ccc1C)C(C)=CC(C)(C)N2` [Compound 3-56, 6-(4-Fluoro-2-methoxyphenyl)-5-(5-chloro-2-methylphenoxymethyl)-2,2,4-trimethyl-1,2-dihydroquinoline], for which the “GR Binding ratio (%)” value was 98%.

For the compound `COc1ccc(OCc2ccccc2)cc1-c1ccc2c(c1COc1cc(F)ccc1C)C(C)=CC(C)(C)N2` [Compound 15-2, 6-(5-Benzyloxy-2-methoxyphenyl)-5-(5-fluoro-2-methylphenoxymethyl)-2,2,4-trimethyl-1,2-dihydroquinoline], the “GR Binding ratio (%)” value came to 76%.

Turning to `COc1ccc(C)cc1-c1ccc2c(c1COC(=O)c1ccc(C)s1)C(C)=CC(C)(C)N2` [Compound 12-67, 6-(2-Methoxy-5-methylphenyl)-5-(5-methylthiophen-2-yl-carbonyloxymethyl)-2,2,4-trimethyl-1,2-dihydroquinoline], the “GR Binding ratio (%)” value was at least 100%.

Take `COc1ccc(F)cc1-c1ccc2c(c1COc1ccccc1CCO)C(C)=CC(C)(C)N2` [Compound 3-99, 6-(5-Fluoro-2-methoxyphenyl)-5-[2-(2-hydroxyethyl)phenoxymethyl]-2,2,4-trimethyl-1,2-dihydroquinoline]: the “GR Binding ratio (%)” value is on record as at least 100%.

In the case of `COc1ccc(C)cc1NCc1c(-c2ccc(F)cc2OC)ccc2c1C(C)=CC(C)(C)N2` [Compound 6-43, 6-(4-Fluoro-2-methoxyphenyl)-5-(2-methoxy-5-methylphenylaminomethyl)-2,2,4-trimethyl-1,2-dihydroquinoline], the “GR Binding ratio (%)” value was at least 100%.

Consider `COc1cc(O)ccc1-c1ccc2c(c1COc1cc(F)ccc1C)C(C)=CC(C)(C)N2` [Compound 5-3, 5-(5-Fluoro-2-methylphenoxymethyl)-6-(4-hydroxy-2-methoxyphenyl)-2,2,4-trimethyl-1,2-dihydroquinoline], for which the “GR Binding ratio (%)” value was at least 100%.

Regarding `COc1cc(F)ccc1-c1ccc2c(c1CNc1ccccc1C)C(C)=CC(C)(C)N2` [Compound 6-37, 6-(4-Fluoro-2-methoxyphenyl)-5-(2-methylphenylaminomethyl)-2,2,4-trimethyl-1,2-dihydroquinoline], the “GR Binding ratio (%)” value is listed as at least 100%.

As for `C=CCc1ccccc1OCc1c(-c2ccc(F)cc2OC)ccc2c1C(C)=CC(C)(C)N2` [Compound 3-74, 6-(4-Fluoro-2-methoxyphenyl)-5-(2-allylphenoxymethyl)-2,2,4-trimethyl-1,2-dihydroquinoline], the “GR Binding ratio (%)” value is at least 100%.

Turning to `COc1cc(F)ccc1-c1ccc2c(c1COc1cc(C=O)ccc1C)C(C)=CC(C)(C)N2` [Compound 3-94, 6-(4-Fluoro-2-methoxyphenyl)-5-(5-formyl-2-methylphenoxymethyl)-2,2,4-trimethyl-1,2-dihydroquinoline], the “GR Binding ratio (%)” value is at least 100%.

On to `COc1cc(F)ccc1-c1ccc2c(c1COc1cc([N+](=O)[O-])ccc1C#N)C(C)=CC(C)(C)N2` [Compound 3-91, 5-(2-Cyano-5-nitrophenoxymethyl)-6-(4-fluoro-2-methoxyphenyl)-2,2,4-trimethyl-1,2-dihydraquinoline], for which the “GR Binding ratio (%)” value is at least 100%.

Turning to `COc1ccc(F)cc1-c1ccc2c(c1COC(=O)c1ccc(C)s1)C(C)=CC(C)(C)N2` [Compound 12-76, 6-(5-Fluoro-2-methoxyphenyl)-5-(5-methylthiophen-2-ylcarbonyloxymethyl)-2,2,4-trimethyl-1,2-dihydroquinoline], the “GR Binding ratio (%)” value is at least 100%.

Regarding `COc1cc(F)c(F)cc1-c1ccc2c(c1COc1cc(F)ccc1C)C(C)=CC(C)(C)N2` [Compound 3-57, 6-(4,5-Difluoro-2-methoxyphenyl)-5-(5-fluoro-2-methylphenoxymethyl)-2,2,4-trimethyl-1,2-dihydroquinoline], the “GR Binding ratio (%)” value turned out to be 98%.

As to `COc1cc(F)ccc1-c1ccc2c(c1CNc1cc(F)ccc1C)C(C)=CC(C)(C)N2` [Compound 6-57, 6-(4-Fluoro-2-methoxyphenyl)-5-(5-fluoro-2-methylphenylaminomethyl)-2,2,4-trimethyl-1,2-dihydroquinoline], the “GR Binding ratio (%)” value was at least 100%.

Turning to `COc1cc(F)c(F)cc1-c1ccc2c(c1COC(=O)c1cccs1)C(C)=CC(C)(C)N2` [Compound 12-53, 6-(4,5-Difluoro-2-methoxyphenyl)-5-[(thiophen-2-yl)carbonyloxymethyl]-2,2,4-trimethyl-1,2-dihydroquinoline], the “GR Binding ratio (%)” value is given as at least 100%.

On to `COc1cc(F)c(F)cc1-c1ccc2c(c1COC(=O)c1ccc(C)s1)C(C)=CC(C)(C)N2` [Compound 12-54, 6-(4,5-Difluoro-2-methoxyphenyl)-5-[(5-methylthiophen-2-yl)carbonyloxymethyl]-2,2,4-trimethyl-1,2-dihydroquinoline], for which the “GR Binding ratio (%)” value is at least 100%.

As for `COc1cc(F)c(F)cc1-c1ccc2c(c1COc1ccccc1C)C(C)=CC(C)(C)N2` [Compound 3-45, 6-(4,5-Difluoro-2-methoxyphenyl)-5-(2-methylphenoxymethyl)-2,2,4-trimethyl-1,2-dihydroquinoline], the “GR Binding ratio (%)” value is 98%.

As to `COc1cc(F)ccc1-c1ccc2c(c1COc1cc(C)cc(C)c1C)C(C)=CC(C)(C)N2` [Compound 3-44, 6-(4-Fluoro-2-methoxyphenyl)-5-(2,3,5-trimethylphenoxymethyl)-2,2,4-trimethyl-1,2-dihydroquinoline], the “GR Binding ratio (%)” value turned out to be 98%.

For `COc1ccc(F)cc1-c1ccc2c(c1CNc1cc(F)ccc1C)C(C)=CC(C)(C)N2` [Compound 6-78, 6-(5-Fluoro-2-methoxyphenyl)-5-(5-fluoro-2-methylphenylaminomethyl)-2,2,4-trimethyl-1,2-dihydroquinoline], the “GR Binding ratio (%)” value was at least 100%.

Consider `CCc1cccc(NCc2c(-c3ccc(F)cc3OC)ccc3c2C(C)=CC(C)(C)N3)c1` [Compound 6-40, 5-(3-Ethylphenylaminomethyl)-6-(4-fluoro-2-methoxyphenyl)-2,2,4-trimethyl-1,2-dihydroquinoline], for which the “GR Binding ratio (%)” value is reported as 99%.
